Source: patent US20060135765A1, “Antineoplastic ether lipid compounds” (priority 2003, published 2006)
Where “and” joins values, the source holds several entries; their conditions need not be identical. Equal entries are not always repeated. Where two headings read alike, the source gives them in different places.

Columns and labels:
[1] = system: platelets in dog whole blood; experiment: Platelet aggregation in dog whole blood (whole blood aggregometer)
Description: Briefly, whole citrated blood is diluted 1:2 with sterile saline and placed in a warm chamber with a mini stir bar. An electronic probe, measuring electrical resistance, is inserted in the sample. The aggregometer is calibrated and the baseline is observed to detect any spontaneous aggregation. The test sample is added and allowed to run for at least 6 minutes. If the sample is an agonist the platelets will start to aggregate and stick to the electronic probe causing resistance across the electrodes to increase. This resistance, in ohms, is measured 6 minutes post addition of sample. The test samples are run at 25, 100, 200, 400 and 800 uM and compared to 100 uM L-ET-18-OCH3.
Collection of Blood Sample for in vitro Platelet Aggregation Testing: Venous blood is collected in 4.5 mL Vacutainer tubes containing 0.129 M sodium citrate using a 21G needle or larger. Blood is immediately mixed by gentle inversion 15-20 times and kept at room temperature. Dilution ratio is 1 to 9 (3.8% citrate solution:blood). One (2.0 mL) Vacutainer tube containing EDTA is also collected for platelet counts. Complete blood counts (CBC) are measured on the CDC Technologies Hemavet 1500 to ensure that the test subject's platelets are within normal range. Any vials of hemolytic blood or blood containing any clots should be discarded. Platelet aggregation testing must be completed within 3 hours of blood collection. After this time the ability of platelets to aggregate decreases.
Cloudy solutions were warmed to 50° C. to dissolve and particles. Dilutions were prepared in PBS or saline at 40× concentration. (25 uL test sample are added to 1000 uL diluted blood (1:40)).
Procedure for in vitro Platelet Aggregation Test using CH NO-LOG Aggregometer Model 560-CA: The following protocol was used:

[2] = system: DEVDase activity in Jurkat T Cells; experiment: DEVDase activity in Jurkat T cells; type: cell-based
Description: Suspension cells were seeded at density 3.2×10^5 cells per mL in RPMI-1640 medium (Bio-Whittaker) supplemented with 10% heat inactivated FBS (Bio-Whittaker). Cells were pre-incubated overnight prior to treatment with the ether lipid compounds of the invention. At treatment time cell density was 5×10^5 cells per mL. Cells were incubated with the ether lipid compounds of the invention for various periods of time, usually 6 hours. Cells were collected, washed with 1×DPBS and resuspended in 110 μl of Buffer A (10 mM HEPES-KOH, pH 7.4, 2 mM EDTA, 0.1% CHAPS, 5 mM DTT, 1:100 dilution of protease inhibitors cocktail (SigmaYDTT and protease inhibitors should be added just before use). After 10 min incubation on ice in order to lyse cells, samples were frozen on dry ice/ethanol and kept at −20° C. until analysis. […] At the time of analysis of DEVDase activity frozen pellets were kept on ice until thawed and after vigorous vortexing samples were centrifuged at 14,000 rpm for 6 min. Supernatant was transferred into another tube and 2 μl, in triplicates, were used for protein measurement using Bradford reagent (Bio-Rad).
Measurement of DEVDase activity was carried out in 100 μl volume, where 10 μg of protein was delivered in 50 μl of Buffer A and 40 μM of substrate Ac-DEVD-AMC was also delivered in 50 μl of Buffer A. All measurements were done in triplicates. Reaction was carried out for 1 hour and generation of fluorescent product of reaction (aminomethylcoumarin) was measured by reading fluorescence at 1em 460 nm (1ex 360 nm). Changes in DEVDase activity were calculated after subtraction of background fluorescence of substrate incubated without proteins, and were expressed as percent of control (DEVDase activity in untreated cells). Average of DEVDase activity, calculated from few independent experiments, was used to calculate percent of L-ether lipid-induced DEVDase activity.

[3] = system: NIH-3T3; experiment: In vitro growth inhibition (SRB), NIH-3T3 normal fibroblasts; type: cell-based, mouse; conditions: NIH-3T3 normal cell line; 3 days
From the text: (§1) III. In Vitro Growth Inhibition (GI50) A. Cell line maintenance The following cell lines were selected from the cell bank for screening and GI50 studies: MCF-7: human breast tumor, MCF-7/ADR: MCF-7 adriamycin resistant subline, HT-29: human colon carcinoma, A-549: human non-small cell lung cancer, NIH-3T3: mouse Swiss embryo fibroblast and WI-38: human lung fibroblast, SKMEL-28: human melanoma, Lewis Lung: mouse lung carcinoma, DU-145: prostate carcinoma, B16F10: mouse melanoma, L1210: murine lymphocytic leukemia, P-388: murine leukemia, U-937: human histolytic lymphoma. […]
(§2) The test compounds were made in-house and the compounds were dissolved PBS or saline at a stock concentration of approximately 20 mM, which is 400 times the desired final maximum test concentration. […] After 3 days of incubation, cell growth was determined.
(§3) The SRB assay was performed as described by Monks, A., Scudiero, D., Skehan, P., Shoemaker, R., Paull, K., Vistica, D., Hose, C., Langley, J., Cronise, P., and Vaigro-Wolff, A. Feasibility of a high-flux anticancer drug screen using a diverse panel of cultured human tumor cell lines. […] Bound SRB was solubilized with Tris buffer (10 mM), and the ODs were read using an automated plate reader (Bio-Rad, Model 3550-UV) at 490 nm. Background values were subtracted from the test data, and the data was calculated as a % of control. […]

[4] = system: Whole Human Blood; experiment: Hemolysis assay with whole human blood; type: cell-based
Description: Venous blood was collected in 10 mL Vacutainer tubes containing EDTA using a 21G needle or larger.
stock solutions of 20 mM test sample in phosphate buffered saline (PBS) were prepared as follows:
Then 270 uL of whole blood was aliquotted in duplicate mini test tubes using positive displacement pipet. Next, 30 uL of each working stock solution, in duplicate, was added to the whole blood. Next, 30 uL of PBS was added for background control. The samples were capped or sealed with Parafilm and gently mixed. The blood was incubated at 37° C. in gentle rotating water bath for 30 minutes. Final concentration of test sample was 10% of working stock solution.
Total hemolysis samples of 1% and 10% whole blood samples in deionized water were prepared as follows: 1:100=10 uL whole blood+990 uL deionized water 1:10=100 uL whole blood+900 uL deionized water
The samples were freeze thawed 3× in liquid nitrogen then water bath. The samples were then centrifuged 10 minutes at 1500 RPM. Next, 100 uL of supernatant was transferred to a cuvette and […] deionized water was added. The absorbance was read at 550 nm vs. water blank.
H10 and H50 were calculated by graphing Percent Total Hemolysis vs. Test Sample Concentration. The Percent Total Hemolysis=(average o.d of test sample)/(average o.d. of total hemolysis sample)×100

[5] = system: MCF7; experiment: In vitro growth inhibition (SRB), MCF7; type: cell-based, human; conditions: MCF7 tumor cell line; 3 days
From the text: as §1, §2, §3

[6] = system: WI38; experiment: In vitro growth inhibition (SRB), WI-38 normal fibroblasts; type: cell-based, human; conditions: WI38 normal cell line; 3 days
From the text: as §1, with “lymphoma. Except HT-29, WI-38, NIH-3T3 and Lewis Lung which were obtained from the American Type Culture Collection (Rockville, Md.) all the other cell lines were obtained from National Cancer Institute—Frederick Research Facility (Frederick, Md.).” for “lymphoma.”
as §2
The SRB assay was performed as described by Monks, A., Scudiero, D., Skehan, P., Shoemaker, R., Paull, K., Vistica, D., Hose, C., Langley, J., Cronise, P., and Vaigro-Wolff, A. Feasibility of a high-flux anticancer drug screen using a diverse panel of cultured human tumor cell lines. […] Bound SRB was solubilized with Tris buffer (10 mM), and the ODs were read using an automated plate reader (Bio-Rad, Model 3550-UV) at 490 nm. Background values were subtracted from the test data, and the data was calculated as a % of control. […] Percentage growth was calculated as described by Peters, A. C, Ahmad, L, Janoff, A. S., Pushkareva, M. Y., and Mayhew, E. Growth Inhibitory efects of liposome-associated 1-o-octadecyl-2-o-metlryl-sn-glycero-3-phosphocholine. […]

[7] = system: HT29; experiment: In vitro growth inhibition (SRB), HT29; type: cell-based, human; conditions: HT29 tumor cell line; 3 days
From the text: as §1, §2, §3

[8] = system: MCF7/ADR; experiment: In vitro growth inhibition (SRB), MCF7/ADR; type: cell-based, human; conditions: MCF7/ADR tumor cell line; 3 days
From the text: as §1, §2, §3

[9] = system: Washed Human RBCs; experiment: Hemolysis assay with washed human red blood cells; type: cell-based
Description: Venous blood was collected in 10 mL Vacutainer tubes containing EDTA using a 21G needle or larger. […] The blood was transferred from 1 EDTA tube to a 50 mL conical tissue culture tube and the volume was brought up to 50 mL with PBS.
The blood was centrifuged for 10 minutes at 1500 RPM. The supernatant was removed and the blood was resuspended up to 50 mL with PBS. Next the blood was centrifuged for 10 minutes at 1500 RPM.
The supernatant was removed, and 2.0 mL of packed red blood cells was carefully transferred, using positive displacement pipet, into a fresh conical tissue culture tube. Next, 48 mL PBS was added to achieve a 4% washed RBC solution.
Next, 25, 50, 100 and 200 uM stock solutions of test sample in phosphate buffered saline (PBS) as follows:
Next, 0.5 mL of 4% washed RBC was added to 0.5 mL test sample dilutions (in duplicate). The final concentration of test sample was 50% of working stock solution.
The samples were capped or sealed with Parafilm and the samples were gently mixed. The blood was incubated at 37° C. in gentle rotating water bath for 30 minutes. The samples were centrifuged for 10 minutes at 1500 RPM. Next, 200 uL of supernatant was transferred to a cuvette and 1 mL deionized water was added. Absorbance was measured at 550 nm vs. a water blank. Next, H10 and H50 were determined by graphing Absorbance vs. Test Sample Concentration.

[10] = system: A549; experiment: In vitro growth inhibition (SRB), A549; type: cell-based, human; conditions: A549 tumor cell line; 3 days
From the text: as §1, §2, §3

[11] = system: RPMI-8226; experiment: NCI screen, RPMI-8226; type: cell-based, human; conditions: leukemia panel
Description: (§4) Candidates deemed suitable for in vivo testing were then synthesized in large scale quantities and some of this material was sent to the NCI's Developmental Therapeutics Program for a battery of growth inhibitory studies against various human tumor cell lines (60 cell lines, 9 different panels). The remainder of the material was used to assess in vivo efficacy using murine tumor models. Additionally, studies were conducted on the lead candidates to discern mechanism of action with particular emphasis on these agents apoptotic ability as measured by caspase 3 activity. The details (materials and methods) for these various assays are described further in the following discussion.
(§5) Ten compounds were also sent to NCT's Drug Discovery Program for screening against numerous human tumor cell lines (9 panels total: renal ovarian, colon, CNS, non-small cell lung, leukemia, breast, melanoma, and prostate). The data are shown in FIGS. 2a-i which also include data regarding D- and L-ET-18-OCH3 (listed as L-EL and D-EL in the figures).

[12] = system: K-562; experiment: NCI screen, K-562; type: cell-based, human; conditions: leukemia panel
Description: as §4, §5

[13] = system: human umbilical vein endothelial cell (HUVEC) line; experiment: In vitro growth inhibition, HUVEC; type: cell-based
[14] = concentration producing 10% hemolysis
[15] = concentration producing 50% hemolysis

SMILES: CCCCCCCCCCCCCCCCCCOCC(CCP(=O)([O-])OCCC[N+](C)(C)C)OC [2(S), 3′-Trimethylaminopropyl-1-O-octadecyl-2-O-methylbutane-4-phospbonate]
- platelet aggregation response (in words) [1]: no aggregation was noted
- Relative Platelet Aggregation (Ohms) ([1]; 25 μM): 0 Ohms
- Relative Platelet Aggregation (Ohms) ([1]; 100 μM): 0 Ohms
- Relative Platelet Aggregation (Ohms) ([1]; 200 μM): 0 Ohms
- Relative Platelet Aggregation (Ohms) ([1]; 400 μM): 0 Ohms
- Relative Platelet Aggregation (Ohms) ([1]; 800 μM): 0 Ohms
- platelet aggregation response (in words) ([1]; listed as 2): did not evoke a platelet aggregation response
- % L-ET18OCH3 (DEVDase, 6 hrs) ([2]; [ether lipid] 10 μM): 57.2 ± 8.4 % L-ET18OCH3
- % L-ET18OCH3 (DEVDase, 6 hrs) ([2]; [ether lipid] 20 μM): 70.6 ± 10.8 % L-ET18OCH3
- % L-ET18OCH3 (DEVDase, 6 hrs) ([2]; [ether lipid] 30 μM): 76.8 ± 11.1 % L-ET18OCH3
- GI50 [3]: 33.5 µM and 33.6 µM
- H10 [4, 14]: 400 µM
- H50 [4, 15]: >2000 µM
- GI50 [5]: 34.8 µM
- GI50 [6]: < 4 µM
- GI50 [7]: 4.8 µM
- GI50 [8]: > 40 µM
- H10 [9, 14]: 14 µM and 8 µM
- H50 [9, 15]: 21 µM and 11 µM
- GI50 [10]: 7.2 µM

SMILES: CCCCCCCCCCCCCCCCCCOCC(COP(=O)([O-])OCC[N+](C)(C)C)OC [D-ET18OCH3, 1-O-octadecyl-2-O-methyl-glycerophosphocholine]
- % L-ET18OCH3 (DEVDase, 6 hrs) ([2]; [ether lipid] 10 μM): 79.3 ± 9.7 % L-ET18OCH3
- % L-ET18OCH3 (DEVDase, 6 hrs) ([2]; [ether lipid] 20 μM): 89.2 ± 12.2 % L-ET18OCH3
- % L-ET18OCH3 (DEVDase, 6 hrs) ([2]; [ether lipid] 30 μM): 92.1 ± 11.8 % L-ET18OCH3
- activity against RPMI-8226 (in words) [11]: extremely poor activity
- GI50 [6]: 10 to 13 µM
- activity against K-562 (in words) [12]: extremely poor activity

SMILES: CCCCCCCCCCCCCCCCCCOCC(COP(=O)([O-])OCC[N+](C)(C)C)OC [L-ET18OCH3, 1-O-octadecyl-2-O-methyl-glycerophosphocholine]
- % L-ET18OCH3 (DEVDase, 6 hrs) ([2]; [ether lipid] 10 μM): 100 ± 8.8 % L-ET18OCH3
- % L-ET18OCH3 (DEVDase, 6 hrs) ([2]; [ether lipid] 20 μM): 100 ± 10.4 % L-ET18OCH3
- % L-ET18OCH3 (DEVDase, 6 hrs) ([2]; [ether lipid] 30 μM): 100 ± 9.3 % L-ET18OCH3
- GI50 [6]: 10 to 12 µM
- GI50 [13]: 1200 nM
